Nc1cccc2ccncc12
solubility (mole fraction)
Conditions | in DMF | in acetone | in acetonitrile | in ethanol | in ethylene glycol | in isopropanol | in methanol | in n-propanol | in propylene glycol | in water
278.15 K | 0.00564 | 0.00309 | 0.00458 | 0.00135 | 0.000113 | 0.00283 | 0.000354 | 0.00359 | 0.000176 | 3.46e-05
283.15 K | 0.00693 | 0.00371 | 0.00539 | 0.00161 | 0.000132 | 0.00344 | 0.000411 | 0.0042 | 0.000211 | 4e-05
288.15 K | 0.00832 | 0.00439 | 0.00651 | 0.00191 | 0.000156 | 0.00401 | 0.000483 | 0.00497 | 0.000254 | 4.6e-05
293.15 K | 0.01 | 0.00532 | 0.00789 | 0.0022 | 0.000183 | 0.00477 | 0.000559 | 0.00593 | 0.000304 | 5.45e-05
298.15 K | 0.0119 | 0.00636 | 0.00939 | 0.00261 | 0.00022 | 0.00566 | 0.000664 | 0.007 | 0.000366 | 6.21e-05
303.15 K | 0.0141 | 0.00752 | 0.0111 | 0.00308 | 0.000261 | 0.00664 | 0.000773 | 0.00831 | 0.000433 | 7.2e-05
308.15 K | 0.0167 | 0.00896 | 0.0131 | 0.00365 | 0.000313 | 0.00784 | 0.000919 | 0.00984 | 0.000516 | 8.42e-05
313.15 K | 0.0196 | 0.0105 | 0.0156 | 0.0043 | 0.000367 | 0.00934 | 0.00107 | 0.0115 | 0.000608 | 9.8e-05
318.15 K | 0.023 | 0.0122 | 0.0182 | 0.00508 | 0.000429 | 0.0109 | 0.00128 | 0.0135 | 0.000718 | 0.000113
323.15 K | 0.0267 | 0.0143 | 0.0219 | 0.00602 | 0.000505 | 0.0128 | 0.00151 | 0.0158 | 0.00085 | 0.000132

From BigSolDB 2.1
